Consider 2 molecules from article PMC6637216 (BioImpacts : BI, 2019).

Where “and” joins values, the source holds several entries; their conditions need not be identical. Identical values can stand only once.

For experiment [1], the target named is T1, AChE from Electrophorus electricus (electric eel) (Electrophorus electricus, UniProt O42275). Description: Ellman colorimetric AChE inhibition and kinetics in aqueous phosphate buffer. It counts as biochemical. The conditions noted are these: for nH (Hill coefficient) / Vmax / α / α': aqueous buffer.
The target in experiment [2] is AChE (Electrophorus electricus, UniProt O42275). Description: ThT displacement from AChE. It counts as binding. The conditions noted are these: quenching of ThT-AChE fluorescence, 0.1 M phosphate buffer pH 8.0.
Experiment [3] addresses T1, AChE from Electrophorus electricus (electric eel). Description: Ellman AChE inhibition and kinetics in HSA matrix. The conditions noted are these: for ΔrIC50, relative decrease in inhibition potency in HSA versus buffer: (IC50(HSA)-IC50(Buffer))/IC50(Buffer)x100; for Vmax / α / α': HSA medium (in parentheses); for nH (Hill coefficient): HSA medium, values in parentheses. It counts as biochemical. A general note: Ellman's reagent forms a yellow product with free thiols.

T1 sequence (O42275 24-633): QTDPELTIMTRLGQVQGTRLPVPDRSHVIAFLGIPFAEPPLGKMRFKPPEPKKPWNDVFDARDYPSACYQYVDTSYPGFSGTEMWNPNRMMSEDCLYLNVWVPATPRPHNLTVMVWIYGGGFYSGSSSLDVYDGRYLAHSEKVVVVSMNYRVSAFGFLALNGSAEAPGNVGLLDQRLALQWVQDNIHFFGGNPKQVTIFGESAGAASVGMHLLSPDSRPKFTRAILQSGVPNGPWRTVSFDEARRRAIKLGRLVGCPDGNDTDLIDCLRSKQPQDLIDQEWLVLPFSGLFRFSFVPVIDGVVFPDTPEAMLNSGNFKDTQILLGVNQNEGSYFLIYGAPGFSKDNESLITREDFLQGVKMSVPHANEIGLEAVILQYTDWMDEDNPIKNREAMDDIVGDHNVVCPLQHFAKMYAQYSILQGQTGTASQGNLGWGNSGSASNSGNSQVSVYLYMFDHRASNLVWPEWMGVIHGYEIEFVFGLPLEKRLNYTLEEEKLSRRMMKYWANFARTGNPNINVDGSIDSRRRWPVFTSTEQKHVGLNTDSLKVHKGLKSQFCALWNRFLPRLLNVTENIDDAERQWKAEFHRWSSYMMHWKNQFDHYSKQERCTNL
Chain of AChE (O42275 24-633): as above

On to `N#Cc1coc2ccccc2c1=O` [CyC, 3-cyanochromone], for which, in experiment [1], half-maximal inhibition (IC50) was put at 85.1 ± 6.7 nM and the “nH (Hill coefficient)” value is reported as 1.51 ± 0.1. In addition, in experiment [1] (inhibitor 5 nM), the maximum rate (Vmax) (usually the rate approached at saturating substrate) is 631 ± 21 nM/s, the α was 1.3 and the “α'” value was 1.3. Further, in experiment [1] (inhibitor 10 nM), the maximum rate (Vmax) amounted to 538 ± 31 nM/s, the α was 1.5 and the “α'” value amounted to 1.5. The “KSV (Stern-Volmer constant)” value in experiment [2] came to 370000 M⁻¹. In addition, in experiment [3], it took 113 nM to reach half-maximal inhibition (IC50); the “ΔrIC50, relative decrease in inhibition potency in HSA versus buffer” value was ~ 32% and 32%; the “nH (Hill coefficient)” value came out at 1.89±0.17. Besides, in experiment [3] (inhibitor 5 nM), the Vmax was found to be 730 ± 17 nM/s, the α came to 1.1 and the “α'” value stood at 1.1. In experiment [3] (inhibitor 10 nM), the Vmax came to 671 ± 30 nM/s, the α was 1.2 and the “α'” value worked out at 1.2.
Take `Cc1cc(=O)c2ccc(N)cc2o1` [AMC, 7-amino-2-methylchromone]: in experiment [1], the 50% inhibitory concentration (IC50) (in general, the concentration that gives 50% inhibition) was 103 ± 11.9 nM and the “nH (Hill coefficient)” value worked out at 1.45 ± 0.1. Also, in experiment [1] (inhibitor 5 nM), the maximal velocity (Vmax) came to 670 ± 26 nM/s, the α is 1.2 (1.2) and the “α'” value is 1.2 (1.2). In experiment [1] (inhibitor 10 nM), the Vmax was 560 ± 39 nM/s, the α is given as 1.4 and the “α'” value is 1.4 (1.4). Further, in experiment [2], the “KSV (Stern-Volmer constant)” value was 230000 M⁻¹. Also, in experiment [3], the half-inhibitory concentration (IC50) was 115 nM; the “ΔrIC50, relative decrease in inhibition potency in HSA versus buffer” value is ~ 5% and 5%; the “nH (Hill coefficient)” value stood at 1.52±0.1. In experiment [3] (inhibitor 5 nM), the maximum rate (Vmax) was 711 ± 47 nM/s, the α is reported as 1.2 (1.2) and the “α'” value is 1.2 (1.2). In experiment [3] (inhibitor 10 nM), the maximal velocity (Vmax) worked out at 557 ± 39 nM/s, the α is given as 1.5 and the “α'” value is recorded as 1.4 (1.4).
